Experimental data taken from patent US9302999B2, “Substituted triazoles as herbicides” (E. I. DU PONT DE NEMOURS AND COMPANY, priority 2012, dated 2016).

Legend:
Type in all cases: in vivo
[1] = test system: pigweed (Amaranthus retroflexus); assay: Test D pre-/postemergence: pigweed
Method in brief: (§1)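 Visual control ratings (0–100) after 14–21 days, controlled environment. Preemergence on silt loam; postemergence on 2–18 cm plants.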

[2] = test system: chamomile (scentless chamomile, Matricaria inodora); assay: Test D pre-/postemergence: chamomile
Method in brief: as §1

[3] = test system: sandbur (southern sandbur, Cenchrus echinatus); assay: Test F pre-/postemergence: sandbur; conditions: Preemergence
Source text: (§2) Seeds of plant species selected from corn (Zea mays), soybean (Glycine max), velvetleaf (Abutilon theophrasti), lambsquarters (Chenopodium album), poinsettia, wild (wild poinsettia, Euphorbia heterophylla), pigweed, palmer (palmer pigweed, Amaranthus palmeri), waterhemp (common waterhemp, Amaranthus rudis), surinam grass (Brachiaria decumbens), crabgrass, Brazil (Brazilian crabgrass, Digitaria horizontalis), panicum, fall (fall panicum Panicum dichotomiflorum), crabgrass, large (large crabgrass, Digitaria sanguinalis), foxtail, giant (giant foxtail, Setaria faberii), foxtail, green (green foxtail Setaria viridis), goosegrass (Eleusine indica), ragweed (common ragweed, Ambrosia elatior), barnyardgrass (Echinochloa crus-galli), sandbur (southern sandbur, Cenchrus echinatus), arrowleaf sida (Sida rhombifolia), ryegrass, Italian (Italian ryegrass, Lolium multiflorum), dayflower, VA (Virginia (VA) dayflower, Commelina virginica), field bindweed (Convolvulus arvensis), cocklebur (common cocklebur, Xanthium strumarium), morningglory (Ipomoea coccinea), nightshade (eastern black nightshade, Solanum ptycanthum), kochia (Kochia scoparia), nutsedge, yellow (yellow nutsedge, Cyperus esculentus), johnsongrass (Sorghum halepense), smartweed (ladysthumb smartweed, Polygonum persicaria), and beggarticks (hairy beggarticks, Bidens pilosa), were planted into a silt loam soil and treated preemergence with test chemicals formulated in a non-phytotoxic solvent mixture which included a surfactant. At the same time, plants selected from these crop and weed species and also pigweed (Amaranthus retroflexus), waterhemp_RES1 (ALS/Triazine resistant common waterhemp, Amaranthus rudis) and waterhemp_RES2 (ALS/HPPD resistant common waterhemp, Amaranthus rudis) were planted in pots containing a planting medium comprising spaghnum peat moss, vermiculite, wetting agent and starter nutrients treated with postemergence applications of some of the test chemicals formulated in the same manner. Plants ranged in height from 2 to 18 cm for postemergence treatments (1- to 4-leaf stage).
(§3) Treated plants and controls were maintained in a greenhouse for 14 to 21 days, after which time all species were compared to controls and visually evaluated. Plant response ratings, summarized in Table E, are based on a scale of 0 to 100 where 0 is no effect and 100 is complete control. A dash (-) response means no test result.

[4] = test system: dayflower, VA (Virginia (VA) dayflower, Commelina virginica); assay: Test F pre-/postemergence: dayflower, VA; conditions: Preemergence
Method in brief: (§4)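 Visual response scores, 0 meaning no effect and 100 complete control, were assigned against untreated controls 14 to 21 days after treatment. Test chemicals in a surfactant-containing non-phytotoxic solvent were applied preemergence to seeded silt loam soil or postemergence to 2–18 cm plants in peat-based medium.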

[5] = test system: morningglory (Ipomoea coccinea); assay: Test F pre-/postemergence: morningglory; conditions: Preemergence
Source text: as §2, §3

[6] = test system: nutsedge, yellow (yellow nutsedge, Cyperus esculentus); assay: Test F pre-/postemergence: nutsedge, yellow; conditions: Preemergence
Method in brief: as §4

[7] = Postemergence, 31 g ai/ha, scale 0 to 100 (0 no effect, 100 complete control)
[8] = Postemergence, 62 g ai/ha, scale 0 to 100 (0 no effect, 100 complete control)
[9] = Postemergence, 125 g ai/ha, scale 0 to 100, 0 no effect, 100 complete control
[10] = Postemergence, 16 g ai/ha, scale 0 to 100
[11] = Preemergence, 16 g ai/ha, scale 0 to 100, 0 no effect, 100 complete control
[12] = Preemergence, 31 g ai/ha, scale 0 to 100, 0 no effect, 100 complete control
[13] = Preemergence, 62 g ai/ha, scale 0 to 100
[14] = Preemergence, 125 g ai/ha, scale 0 to 100
[15] = 16 g ai/ha, scale 0 to 100, 0 no effect, 100 complete control
[16] = 31 g ai/ha, scale 0 to 100, 0 no effect, 100 complete control

Row | SMILES | Plant response rating, Sandbur [3, 15] | Plant response rating, Sandbur [3, 16] | Plant response rating, Sandbur ([3]; 125 g ai/ha, scale 0 to 100) | Plant response rating, Sandbur ([3]; 250 g ai/ha, scale 0 to 100) | Plant response rating, Dayflower, VA [4, 15] | Plant response rating, Dayflower, VA [4, 16] | Plant response rating, Dayflower, VA ([4]; 62 g ai/ha, scale 0 to 100) | Plant response rating, Dayflower, VA ([4]; 125 g ai/ha, scale 0 to 100) | Plant response rating, Dayflower, VA ([4]; 250 g ai/ha, scale 0 to 100) | Plant response rating, Morningglory [5, 15] | Plant response rating, Morningglory [5, 16] | Plant response rating, Morningglory ([5]; 125 g ai/ha, scale 0 to 100) | Plant response rating, Morningglory ([5]; 250 g ai/ha, scale 0 to 100) | Plant response rating, Nutsedge, Yellow [6, 15] | Plant response rating, Nutsedge, Yellow [6, 16] | Plant response rating, Nutsedge, Yellow ([6]; 125 g ai/ha, scale 0 to 100) | Plant response rating, Nutsedge, Yellow ([6]; 250 g ai/ha, scale 0 to 100) | also measured
1 | Cc1nn(-c2ccc(C(F)(F)F)c(F)c2)nc1Oc1ccnc(C(F)(F)F)c1 [Compound 148] | 0 | 0 | 70 | 100 | 0 | 40 | 40 | 65 | 90 | 0 | 30 | 50 | 70 | 0 | 0 | 20 | 35 | Plant response rating: Pigweed [1, 7]: 85; Plant response rating: Pigweed [1, 8]: 95; Plant response rating: Pigweed [1, 9]: 95; Plant response rating, Pigweed [1, 10]: 70; Plant response rating, Pigweed [1, 11]: 15; Plant response rating, Pigweed [1, 12]: 70; Plant response rating, Pigweed [1, 13]: 85; Plant response rating, Pigweed [1, 14]: 100; Plant response rating: Chamomile [2, 7]: 70; Plant response rating: Chamomile [2, 8]: 75; Plant response rating: Chamomile [2, 9]: 95; Plant response rating, Chamomile [2, 10]: 60; Plant response rating, Chamomile [2, 11]: 10; Plant response rating, Chamomile [2, 12]: 20; Plant response rating, Chamomile [2, 13]: 70; Plant response rating, Chamomile [2, 14]: 100
2 | CCc1nn(-c2ccc(F)c(F)c2)nc1Oc1ccnc(C(F)(F)F)c1 [Compound 171] | 0 | 5 | 50 | 50 | 0 | 0 | 0 | 30 | 30 | 0 | 0 | 35 | 65 | 0 | 0 | 0 | 0 | –
